Experimental data as given in ChEMBL document CHEMBL1146397, “Isolation and structure determination of sulfonoquinovosyl dipalmitoyl glyceride, a P-selectin receptor inhibitor from the alga Dictyochloris fragrans” (J Nat Prod, 1997).
Active and inactive are the calls of the source. The calls are words filed in the database; no cut-off is given here.

Legend:
Type in all cases: cell-based
[1] = target: T1, P-selectin (Homo sapiens) (UniProt P16109); test: (§1) Displacement of immobilized sulfatide from P-selectin transfected in african green monkey COS cells by IgG-based competitive ELISA
T1 sequence (whole entry): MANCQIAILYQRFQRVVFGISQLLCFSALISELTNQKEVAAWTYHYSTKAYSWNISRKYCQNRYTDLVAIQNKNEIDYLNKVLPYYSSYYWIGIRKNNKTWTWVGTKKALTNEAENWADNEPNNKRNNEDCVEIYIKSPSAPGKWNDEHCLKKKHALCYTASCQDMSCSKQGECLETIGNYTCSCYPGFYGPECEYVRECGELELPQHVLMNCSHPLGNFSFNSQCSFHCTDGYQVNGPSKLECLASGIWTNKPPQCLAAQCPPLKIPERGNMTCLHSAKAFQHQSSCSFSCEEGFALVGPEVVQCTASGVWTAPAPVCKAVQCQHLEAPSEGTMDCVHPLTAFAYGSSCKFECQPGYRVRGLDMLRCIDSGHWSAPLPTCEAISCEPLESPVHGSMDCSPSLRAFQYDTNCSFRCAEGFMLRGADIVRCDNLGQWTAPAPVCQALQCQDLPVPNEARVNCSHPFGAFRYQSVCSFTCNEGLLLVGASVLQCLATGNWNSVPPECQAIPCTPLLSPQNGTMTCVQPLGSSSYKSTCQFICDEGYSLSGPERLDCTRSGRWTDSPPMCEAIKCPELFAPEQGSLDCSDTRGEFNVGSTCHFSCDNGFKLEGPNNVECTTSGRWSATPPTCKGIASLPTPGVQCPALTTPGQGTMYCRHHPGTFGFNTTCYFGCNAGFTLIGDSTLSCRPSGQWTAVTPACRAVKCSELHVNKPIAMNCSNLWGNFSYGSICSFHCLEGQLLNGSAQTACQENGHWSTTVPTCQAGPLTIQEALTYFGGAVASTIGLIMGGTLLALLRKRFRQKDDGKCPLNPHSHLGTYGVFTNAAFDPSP

P-selectin = target: T2, P-selectin (Homo sapiens, UniProt P16109); test: as §1
T2 sequence (P16109 whole entry): T1 sequence (whole entry)

[2] = target: T1, P-selectin (Homo sapiens); test: Inhibition of human P-selectin-dependent adhesion of activated platelets to HL60 cells after 30 mins by flow cytometry; conditions: HL-60
[3] = Inhibition of human P-selectin receptor globulin adhesion to HL60 cells; conditions: HL-60

| IC50 (P-selectin) [µM] | inhibition [2] [%] | IC50 [3] [µM] | Compound | Activity [1] |
| --- | --- | --- | --- | --- |
|  |  |  | CCCCCCCCCCCCCC(=O)OCC(COP(=O)(O)OCCN)OC(=O)CCCCCCCCCCCCC (stereo unspecified) | inactive |
| 1 | 0 |  | CCCCC/C=C/C/C=C/CCCCCCCC(=O)OC(COC(=O)CCCCCCCCCCCCCCC)COP(=O)(O)OCC(O)CO (stereo unspecified) [PHOSPHATIDYL GLYCEROL] |  |
| 5 | 24 | 40 | CCCCCCCCCCCCCCCC(=O)OCC(CO[C@H]1O[C@H](CS(=O)(=O)O)[C@@H](O)[C@H](O)[C@H]1O)OC(=O)CCCCCCCCCCCCCCC (stereo partly specified) [SULFONOQUINOVOSYL DIPALMITOYL GLYCERIDE] |  |
